# Reference: patent publication US7615543B2, “Treatment and prevention of tissue damage” (Pentraxin Therapeutics Limited, priority 2002, dated 2009)
# Like-named read-outs stand apart in the source and are kept apart here.
# Key:
# CRP [1] = molecular target: T1, CRP (Homo sapiens, UniProt P02741)
# T1 sequence (P02741 19-224): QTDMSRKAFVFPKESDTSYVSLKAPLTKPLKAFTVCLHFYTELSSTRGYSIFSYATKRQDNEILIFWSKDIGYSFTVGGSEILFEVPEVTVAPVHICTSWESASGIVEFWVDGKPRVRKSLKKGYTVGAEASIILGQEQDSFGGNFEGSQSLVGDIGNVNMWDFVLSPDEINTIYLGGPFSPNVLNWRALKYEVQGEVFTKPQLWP
# From the text: The Roche MIRA automated immunoassay for CRP (64) depends on recognition by a monoclonal antibody of a calcium-dependent epitope on the CRP molecule.
# SAP [2] = molecular target: T2, SAP (Homo sapiens, UniProt P02743); experiment: Isothermal calorimetry of CPHPC with SAP; settings: read-out: affinity of binding, SAP and CPHPC
# T2 sequence (P02743 20-223): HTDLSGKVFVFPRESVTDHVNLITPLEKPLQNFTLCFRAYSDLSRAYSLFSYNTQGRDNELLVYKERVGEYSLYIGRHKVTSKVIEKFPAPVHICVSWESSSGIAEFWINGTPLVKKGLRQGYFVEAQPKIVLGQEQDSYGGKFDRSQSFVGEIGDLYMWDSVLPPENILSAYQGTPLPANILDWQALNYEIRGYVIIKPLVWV
# From the text: This phenomenon contrasts sharply with the behaviour in vivo of the closely related molecule, serum amyloid P component (SAP), the other member of the human pentraxin protein family. SAP shares with CRP the homopentameric structure consisting of 5 identical protomers non-covalently associated in a disc like configuration, with a single calcium-dependent ligand binding site on one face of each subunit. […] The handling of aggregated human SAP in vivo may thus differ markedly from that of aggregated CRP. […] Thus compounds that are both bound by CRP with higher affinity and that cross-link it in more avid stable complexes, may cause accelerated clearance from the plasma in vivo.
# mouse SAP = molecular target: T3, mouse SAP (Mus musculus, UniProt P12246); settings: CPHPC administered to mice; cited from earlier work
# T3 construct: host or cells: mice, endogenous circulating SAP
# T3 sequence (P12246 21-224): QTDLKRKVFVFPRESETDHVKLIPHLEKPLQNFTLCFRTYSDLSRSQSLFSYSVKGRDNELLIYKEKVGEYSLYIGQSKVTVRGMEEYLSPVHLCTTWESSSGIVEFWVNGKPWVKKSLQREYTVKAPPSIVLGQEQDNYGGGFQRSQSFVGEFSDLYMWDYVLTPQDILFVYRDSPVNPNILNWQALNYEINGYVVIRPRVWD
# SAP [3] = molecular target: T2, SAP; parameters: human SAP expressed in human SAP transgenic mice; host or cells: human SAP transgenic mice; circulation in vivo; settings: cited from earlier work
# CRP [4] = molecular target: T1, CRP; experiment: Gel filtration (molecular sieve) chromatography of CRP molecular assembly; format: binding; settings: 10 fold molar excess of drug
# From the text: The ligand binding sites on each of the 5 protomers in the CRP molecule are all on the same face of the disc-like pentameric assembly of the native protein.
compound,measurement,setting,value
D-Pro-hexanoyl-phosphocholine [DPHPC],reduction of MIRA CRP concentration,"CRP [1]; CRP 100 mg/l, SAP 100 mg/l (~4 μM), DPHPC 400 μM",58%
same,reduction of MIRA CRP concentration,"CRP [1]; CRP 100 mg/l, SAP 100 mg/l (~4 μM), DPHPC 2 mM",89%
same,reduction of MIRA CRP concentration,"CRP [1]; CRP 100 mg/l, SAP 100 mg/l (~4 μM), DPHPC 4 mM",99%
same,effect on apparent CRP concentration in MIRA assay,"CRP [1]; added to isolated pure CRP, no SAP",slightly reduces
same,reduction of MIRA CRP value,"CRP [1]; pure CRP 100 mg/l (~4 μM), DPHPC 400 μM, no SAP",no effect
same,reduction of MIRA CRP value,"CRP [1]; pure CRP 100 mg/l (~4 μM), DPHPC 4 mM, no SAP",91%
same,reduction of MIRA CRP value,"CRP [1]; second experiment: ~4 μM CRP, 1 mM DPHPC, SAP 400 nM",61%
same,reduction of MIRA CRP value,"CRP [1]; second experiment: ~4 μM CRP, 1 mM DPHPC, SAP 800 nM",61%
same,reduction of MIRA CRP value,"CRP [1]; second experiment: ~4 μM CRP, 1 mM DPHPC, SAP 2 μM",73%
same,reduction of MIRA CRP value,"CRP [1]; second experiment: ~4 μM CRP, 1 mM DPHPC, SAP about 4 μM",85%
same,reduction of MIRA CRP concentration,"CRP [1]; second experiment: ~4 μM CRP, 1 mM DPHPC, no SAP",62%
same,reduction of MIRA CRP value,"CRP [1]; whole serum, SAP and CRP both ~4 μM, 4 mM DPHPC",44%
same,enhancement by SAP of the effect of DPHPC alone in MIRA,"CRP [1]; whole serum, SAP concentrations lower than 2 μM, 4 mM DPHPC",no enhancement
same,reduction of MIRA CRP value,"CRP [1]; whole serum, ~4 μM CRP, 2 μM SAP, 4 mM DPHPC",29%
same,reduction of CRP detectable in MIRA assay,"CRP [1]; whole serum, ~4 μM CRP, 4 mM DPHPC, no added SAP",19%
"O=C(O)[C@H]1CCCN1C(=O)CCCCC(=O)N1CCC[C@@H]1C(=O)O [CPHPC, (R)-1-[6-[(R)-2-Carboxy-pyrrolidin-1-yl]-6-oxo-hexanoyl]pyrrolidine-2-carboxylic acid]",Kd,SAP [2],10 nM
same,effect on clearance of mouse SAP in vivo,mouse SAP,does not accelerate clearance
same,effect on human SAP in vivo,SAP [3]; human SAP transgenic mice,dramatically clears
same,clearance of SAP-CPHPC complexes from the circulation in vivo,SAP [3]; pairs of SAP molecules cross linked by CPHPC,very rapidly cleared
C[N+](C)(C)CCOP(=O)([O-])O [phosphocholine],Molecular assembly of CRP,CRP [4],Single pentamers
